# Data taken from patent publication US9701709B2 (REATA PHARMACEUTICALS, INC., priority 2012, dated 2017).
# Assays:
# [1] = tested on: NQO1 and HMOX1 protein in BV2 cells; assay: Western blot of Nrf2 target proteins in BV2; assay type: cell-based, mouse; settings: BV2, 24 h
# Description: SH-SY5Y cells were plated in 6-well plates at a density of 4×10^5 cells per well. BV-2 cells were plated in 6-well plates at a density of 2.5×10^4 cells per well. […] Following treatment, cells were washed twice with cold PBS and harvested in lysis buffer. Cells were sonicated and debris was cleared by centrifugation (10 min @ 18,000 rcf, Beckman Coulter, microfuge 18 centrifuge). Total protein in supernatant was quantified using Bio-Rad protein reagent with BSA as a standard. Equal amounts of total cellular protein were separated on SDS-PAGE, and proteins were transferred to nitrocellulose membrane. Membranes were blocked for 1 hour in TBST (1×TBS with 0.1% Tween-20) containing 5% milk, washed 3 times with TBST, and incubated with primary antibodies overnight at 4° C. NQO1 antibody was from Abcam (#AB2346); HMOX1 (HO-1) antibody was from Santa Cruz (#sc-10789); actin antibody was from Millipore (#MAB 1501). After washing with TBST, secondary antibodies were added in TBST+5% milk for 1 h at room temperature. AffiniPure goat anti-rabbit or anti-mouse IgG secondary antibodies were from Jackson ImmunoResearch (catalog #111-035-144 and #115-035-146, respectively). Membranes were washed in TBST, developed using ECL, and exposed to X-ray film. […] HMOX1 protein was not detected in untreated or RTA 408-treated SH-SY5Y cells. […] The same amount of 63170 (54.6 nM) was required.
# [2] = tested on: NADPH levels in HCT-116 cells; assay: WST-1 absorbance as marker of NADPH in HCT-116; assay type: cell-based; settings: HCT-116, 24 h
# Text: WST-1 absorbance is commonly used to assess cell viability by measuring glycolytic production of NAD(P)H by viable cells. Therefore, in situations where NADPH production increases in the absence of any effect on cell viability, WST-1 absorbance also increases (Berridge et al. Biochemica 4:14-19, 1996, which is incorporated herein by reference).
# [3] = tested on: H6PD, PGD, TKT, ME1 mRNA in HCT-116 cells; assay: mRNA of NADPH synthesis genes in HCT-116; assay type: cell-based; settings: HCT-116, 10 or 50 nM, 24 h
# Description: HCT-116 cells were plated in 6-well dishes at a density of 3×10^5 cells/well. […] Each well received the same amount of vehicle. Following treatment, media was removed and cells were harvested using RLT buffer (Qiagen). Lysates were homogenized using QIAShredder columns (Qiagen, Catalog #79654) and RNA was isolated using RNeasy Mini kits (Qiagen, Catalog #74104). For reverse transcription, RNA (1 μg) was combined with Oligo(dT)12-18 primer and H2O in a final volume of 23.25 μL. The mixture was heated to 70° C. for 10 min and then placed on ice. A master mix containing 8 μL 5×1st strand buffer, 2 μL 1 mg/ml BSA, 2 μL 20 mM DTT, 4 μL 5 mM dNTP mix, 0.25 μL RNaseOUTTM and 0.5 μL […]® II reverse transcriptase was added to the RNA mixture and incubated at 42° C. for 1 h. The reaction was inactivated by heating to 70° C. for 10 min. The reaction mixture was diluted 1:3 with H2O prior to use in qPCR. 2.5 μL of the diluted reverse transcription reaction was combined with one set of PCR primers (0.36 μM final concentration), 2× iQTM SYBR® Green Supermix (Bio-Rad, Catalog #170-8885) and H2O to a final volume of 20 pt. Sequences for PCR primers are as follows: Ribosomal protein S9 (RPS9) forward primer [NT] ID NO: 7), reverse primer [NT] ID NO: 8); […] […] The relative abundance of each target gene was determined using the comparative CT method (ΔΔCT). […]
# [4] = tested on: lactate in C2Cl2 muscle cells; assay: Lactate levels in C2Cl2 myotubes; assay type: cell-based, rodent; settings: differentiated C2Cl2 myotubes; 1 μM or 2 μM, 3 h
# Description: Buffer was removed and saved for measurement of extracellular lactate levels. Cell debris was pelleted by centrifugation (10 min at 14,000 rpm) prior to measurement of lactate. To measure intracellular lactate, cells were suspended in 0.1% Triton X-100 in PBS and lysed by shearing with a 25 gauge needle. Cell lysate was centrifuged (10 min at 14,000 rpm, 4° C.) and lactate was measured in the supernatant. Intracellular and extracellular lactate was measured using the Lactate Assay Kit (BioVision, Catalog # K607-100).
# [5] = Oral pharmacokinetics in rats; assay type: in vivo, rat; settings: oral suspension, 10 to 100 mg/kg
# Description: Measurements were performed on TQD and QToF mass spectrometers (Waters).
# Following oral administration of a suspension formulation at doses of 10 to 100 mg/kg, maximal concentrations were observed within 1 to 2 h in mice, and within 1 to 24 h in rats and monkeys.
# [6] = Metabolism in monkey liver microsomes; assay type: in vitro ADME; settings: 60-min incubation, NADPH and UGT
# CYP2C8 = CYP2C8 (Homo sapiens, UniProt P10632); assay: CYP450 inhibition in pooled human liver microsomes, CYP2C8; assay type: in vitro ADME; settings: read-out: Ki, direct inhibition of CYP2C8
# Chain of CYP2C8 (P10632 whole entry): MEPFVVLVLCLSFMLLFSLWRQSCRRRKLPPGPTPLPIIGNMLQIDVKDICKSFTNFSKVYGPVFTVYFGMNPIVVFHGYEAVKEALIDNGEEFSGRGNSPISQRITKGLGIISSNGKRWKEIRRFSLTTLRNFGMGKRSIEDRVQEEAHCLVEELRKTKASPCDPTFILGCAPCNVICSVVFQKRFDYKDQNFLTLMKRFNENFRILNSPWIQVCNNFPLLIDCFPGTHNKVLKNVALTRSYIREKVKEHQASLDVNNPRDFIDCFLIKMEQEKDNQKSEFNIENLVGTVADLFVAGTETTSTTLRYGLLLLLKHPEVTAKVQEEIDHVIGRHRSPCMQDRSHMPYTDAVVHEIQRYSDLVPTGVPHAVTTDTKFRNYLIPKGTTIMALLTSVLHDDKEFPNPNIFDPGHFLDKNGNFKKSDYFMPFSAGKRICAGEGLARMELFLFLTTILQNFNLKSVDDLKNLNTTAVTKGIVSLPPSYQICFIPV
# Text: In addition, there was little or no evidence of metabolism-dependent inhibition of any of the enzymes tested.
# [7] = tested on: LNCaP prostate cancer cell line; assay: Cytotoxicity in combination with 5-fluorouracil in LNCaP; assay type: cell-based; settings: RTA 408 0.125 to 0.5 μM
# Text: This evidence supports the concept that RTA 408 could act synergistically with cancer therapeutic agents and may be used in some embodiments to provide greater efficacy in treating cancer patients.
smiles,measurement,setting,value
"CC1(C)CC[C@]2(NC(=O)C(C)(F)F)CC[C@]3(C)[C@H](C(=O)C=C4[C@@]5(C)C=C(C#N)C(=O)C(C)(C)[C@@H]5CC[C@]43C)[C@@H]2C1 [RTA 408, N-((4aS,6aR,6bS,8aR,12aS,14aR,14bS)-11-cyano-2,2,6a,6b,9,9,12a-heptamethyl-10,14-dioxo-1,2,3,4,4a,5,6,6a,6b,7,8,8a,9,10,12a,14,14a,14b-octadecahydropicen-4a-yl)-2,2-difluoropropanamide]",NQO1 and HMOX1 protein levels,[1],increased NQO1 and HMOX1 protein levels at concentrations up to 125 nM
same,WST-1 absorbance (marker of NADPH),[2],increased WST-1 absorbance in a dose-dependent manner
same,Expression of genes involved in NADPH synthesis,[3],dose-dependent increase in expression of genes involved in NADPH synthesis
same,Intracellular and extracellular lactate levels,[4],significantly increased intracellular and extracellular lactate levels in a dose-dependent manner
same,Time of maximal concentrations,[5],1 to 24 h
same,Parent molecule remaining,[6],< 10%
same,Ki,CYP2C8,~500 nM
same,Cytotoxicity of 5-fluorouracil in combination,[7],statistically significant increase in cytotoxicity when combined with RTA 408
